Test results as given in US5627185A, “Acyclovir derivatives as antiviral agents” (priority 1995, dated 1997).
“And” between values parts separate entries of the source, which are not always exact repeats. Identical values can stand only once. Like-named read-outs stand apart in the source and are kept apart here.

How the values were obtained:
[1] = test system: Hepatitis B virus (HBV) replication, HBV virion, in transfected HepG2 (2.2.15) cells; experiment: Anti-HBV activity on transfected HepG2 (2.2.15) cells (HBV virion); format: cell-based; settings: for EC50: 50% inhibition of HBV replication; for EC90: 90% inhibition of HBV replication; for SI: SI = CC50/EC90
Source text: (§1) The experimental procedure used for evaluation of activity against Hepatitis B virus is as previously described by Korba and Milman in Antiviral Res. […].
(§2) 1. Anti-HBV activity on transfected HepG2 (2.2.15) cells of Bis(S-acyl-2-thioethyl)phosphotriester derivatives of Acyclovir, (compound 9 of Figure I), as compared with those of the parent nucleoside and of 2',3'-dideoxyguanosine (ddG) and 2',3'-dideoxycytidine (ddC) are shown in Table 1.
(§3) In Table 1, EC90 and EC50 represent the molar concentrations which provide respectively a 90% and a 50% inhibition of HBV replication. CC50 represents the molar concentration which reduces the viability of non-infected cells by 50%.

[2] = Viability of non-infected cells (CC50, Table 1); format: cell-based; settings: human, hepg2 2.2.15 cells, reduces viability of non-infected cells by 50%
Source text: as §1, §2, §3

[3] = test system: Human Immunodeficiency virus (HIV-1, LAI isolate) replication in CEM TK- cells; experiment: Anti-HIV activity on CEM TK- cells; format: cell-based; settings: Human immunodeficiency virus 1, CEM-TK(-), read-out: EC50 (anti-HIV)
Method: The experimental procedure used for evaluation of activities against Human Immunodeficiency virus (HIV) is as follows:
HIV-1 replication (LAI isolate) in CEM cells are measured by assaying for […] (RTase) in the culture supernatant after infection for five days. This activity reflects the presence of the virus released by the cells. After absorption of the virus, the test compounds are added at various concentrations in the culture medium. Antiviral activity is expressed as the lowest concentration of compound which reduces the vital production by at least 50% (ED50)
(§4) 2. Anti-HIV activity on CEM TK- cells of Bis(S-acyl-2-thioethyl) phosphotriesters derivatives of acyclovir, as compared with those of the parent nucleoside and of AZT are shown in Table 2.
In Table 2, EC50 represents the molar concentration which produces a 50% inhibition of HIV replication. Significant inhibition is shown.

in vitro = format: cell-based; settings: human, cem cells
Method: The toxic effect on non-infected CEMs is assessed by a […] reaction based on the capacity of living cells to reduce 3-(4,5 dimethylthiazol-2-yl)-2,5 diphenyltetrazolium bromide into formazan after incubation for five days in the presence of various concentrations of the compounds. The results are expressed as the lowest concentration of compound which results in at least 50% inhibition of the formation of formazan (CD50).
as §4

[4] = test system: Herpes simplex virus type 1 (HSV-1) in MRC-5 cells; experiment: Anti-HSV activity on MRC-5 cells, HSV-1; format: cell-based; settings: Human alphaherpesvirus 1, MRC5, 50% inhibition of HSV-1 replication
Source text: (§5) The experimental procedure used for evaluation of activities against Herpes simplex virus type 1 (HSV-1) is the as described by Genu-Dellac et al. in Nucleosides and Nucleotides, 10, 1345, (1991).
(§6) 3. Anti HSV activity on MRC-5 cells of Bis(S-acyl-2thioethyl)phosphotriesters derivatives of acyclovir is compared to that of Acyclovir in Table 3.
(§7) EC50 represents the molar concentration which produces a 50% inhibition of HSV-1 replication. Significant activity is shown.

HSV-1 TK- in MRC-5 cells = experiment: Anti-HSV activity on MRC-5 cells, HSV-1 TK-; format: cell-based, Herpes simplex virus type 1 TK-; settings: Human alphaherpesvirus 1, MRC5, read-out: HSV-1 TK- EC50
Source text: as §5, §6, §7

[5] = test system: Human Immunodeficiency virus (HIV); settings: background; cited from earlier work
Hepatitis B virus (HBV) = settings: background; cited from earlier work
Epstein-Barr virus = settings: background; thymidine kinase activity reduced or missing; cited from earlier work
Cytomegalovirus = settings: background; thymidine kinase activity reduced or missing; cited from earlier work
[6] = test system: Herpes Simplex virus (HSV); settings: background; due to selective monophosphorylation by HSV thymidine kinase; cited from earlier work
HepG2 (2.2.15) cells = experiment: Viability of non-infected cells (CC50, Table 1); format: cell-based; settings: reduces viability of non-infected cells by 50%
Source text: as §1, §2, §3

[7] = Hepatitis B virus, HepG2 2.2.15, transfected HepG2 (2.2.15) cells, read-out: HBV virion EC50
[8] = Hepatitis B virus, HepG2 2.2.15, transfected HepG2 (2.2.15) cells
[9] = Hepatitis B virus, HepG2 2.2.15, read-out: HBV virion EC50, transfected HepG2 (2.2.15) cells

| SMILES | EC50 [1, 7] [µM] | EC90 [1, 8] [µM] | SI [1] | CC50 [2] [µM] | EC50 [3] [µM] | CC50 at 120 h (in vitro) [µM] | cytotoxicity at 120 h, 100 µM (in vitro) [%] | EC50 [4] [µM] | EC50 (HSV-1 TK- in MRC-5 cells) [µM] | cytotoxicity at 120 h, 10 µM (in vitro) [%] | EC50 [1, 9] [µM] | activity against HIV (in words) [5] | activity against HBV (in words) (Hepatitis B virus (HBV)) | activity against Epstein-Barr virus (in words) (Epstein-Barr virus) | activity against Cytomegalovirus (in words) (Cytomegalovirus) | anti-herpetic activity (in words) [6] | EC50 ([1]; transfected HepG2 (2.2.15) cells, read-out: HBV virion EC50) [µM] | CC50 (HepG2 (2.2.15) cells) [µM] |
| --- | --- | --- | --- | --- | --- | --- | --- | --- | --- | --- | --- | --- | --- | --- | --- | --- | --- | --- |
| CC(=O)SCCOP(=O)(OCCOCn1cnc2c(=O)[nH]c(N)nc21)OCCSC(C)=O [Bis(SATE)ACVMP, O-[1-(Methyl-[9-guanin-yl])-1-hydroxyethyl-2-yl]-O',O"-bis(S-acetyl-2-thioethyl) phosphate] | 0.7 ± 0.1 | 5.1 ± 1 | 194 | 987 ± 99 | 77 | > 100 | 0 | 1.25 | 100 |  |  |  |  |  |  |  |  |  |
| Cc1cn([C@H]2C[C@H](N=[N+]=[N-])[C@@H](CO)O2)c(=O)[nH]c1=O [AZT] |  |  |  |  | > 100 | > 100 | 5 |  |  |  |  |  |  |  |  |  |  |  |
| CC(C)(C)C(=O)SCCOP(=O)(OCCOCn1cnc2c(=O)[nH]c(N)nc21)OCCSC(=O)C(C)(C)C [Bis(SPTE)ACVMP, O-[1-(Methyl-[9-guanin-yl]) -1-hydroxyethyl-2-yl]-O',O"-bis(S-pivaloyl-2-thioethyl) phosphate] | 0.2 ± 0.04 | 7.1 ± 0.8 | 224 | 1590 ± 131 | 3.6 | > 10 |  | 2.5 | 10 | 26 |  |  |  |  |  |  |  |  |
| Nc1nc2c(ncn2COCCO)c(=O)[nH]1 [Acyclovir, acyclovir] |  | > 100 |  | 631 ± 40 | > 100 | > 100 | 0 | 0.63 | > 100 |  | 111 ± 15 | no activity | no activity | poorly active | poorly active | anti-herpetic activity |  |  |
| Nc1ccn([C@H]2CC[C@@H](CO)O2)c(=O)n1 [ddC, 2',3'-dideoxycytidine] |  |  | 20 and 30 | 219 ± 19 |  |  |  |  |  |  | 1.3 ± 0.2 |  |  |  |  |  | 2.2 ± 0.3 | 218 ± 19 |
